Laboratory results from patent publication US8461142B2, “Water-soluble anionic bacteriochlorophyll derivatives and their uses” (Yeda Research and Development Co. Ltd., priority 2002, dated 2013).

Assays:
[1] = system: H5V mouse endothelial cells; test: Phototoxicity assay (Neutral Red viability after illumination), H5V cells; assay type: cell-based; settings: 4 hours incubation; for dark toxicity: kept in the dark, tested range; for LD50 (phototoxicity): washed, illuminated (λ>650 nm, 12 J/cm^2), survival 24 h after illumination
Protocol: (§1) M2R mouse melanoma, H5V mouse endothelial and C6 rat glioma cells were cultured as monolayers in Dulbecco's modified Eagle's medium (DMEM)/F12 containing 25 mM HEPES, pH 7.4, 10% fetal bovine serum (FBS), glutamine (2 mM), penicillin (0.06 mg/ml), and streptomycin (0.1 mg/ml) (hereinafter referred to as the “Culture Medium”). Cells were grown at 37° C. in an 8% CO2-humidified atmosphere.
(§2) To determine the photodynamic efficacy, cells were preincubated with increasing concentrations of the pigments in the dark for the times and conditions as indicated for the individual experiments. Unbound sensitizer was removed by washing the cells once with culture medium, and the plates were illuminated at room temperature from the bottom (λ>650 nm, 12 J/cm^2). The light source was a 100 W Halogen lamp (Osram, Germany) equipped with a 4-cm water filter. The cultures were placed in the culture incubator and cell survival was determined 24 h after illumination, by Neutral Red viability assay. Three kinds of controls were used: (i) light control: cells illuminated in the absence of pigments; (ii) dark control: cells treated with pigments but kept in the dark; and (iii) untreated cells that were kept in the dark.
(§3) The phototoxicity of compounds 4 and 8 was determined as described in (ii) above in M2R mouse melanoma and H5V mouse endothelial cells. Cells were preincubated with increasing concentrations of the compound for 4 hours, washed and illuminated or kept in the dark.

[2] = system: M2R mouse melanoma cells; test: Phototoxicity assay (Neutral Red viability after illumination), M2R cells; assay type: cell-based; settings: 4 hours incubation; for dark toxicity: kept in the dark, tested range; for LD50 (phototoxicity): washed, illuminated (λ>650 nm, 12 J/cm^2), survival 24 h after illumination
Protocol: as §1, §2, §3

[3] = Pharmacokinetics in CD1 nude mice blood (Pd by ICP-MS); assay type: in vivo
Protocol: FIG. 5 is a graph showing pharmacokinetics of compound 4 in CD1 nude mice blood. Following compound 4 injection (6 mg/kg), blood samples were collected from the same mouse at the indicated times and Pd was determined. Each time point represents average of three mice±STD. Pigment 4 of the invention (6 mg/kg body) was injected to CD1 nude mice via tail vein. Mice were sacrificed at the indicated times, and samples of the indicated organs or tissues were placed and weighed in pre-weighted vials and immediately frozen on dry ice. For examination, each sample was thawed and homogenized (1:10 w/v) in double-distilled water. Aliquots of the homogenate (0.5 ml) were lyophilized in Eppendorff test tubes. […] Palladium concentrations were determined by ICP-MS. Background was determined for each organ/tissue on identical samples taken from untreated mice, and values were subtracted accordingly.

[4] = Biodistribution in CD1 nude mice (Pd content of organs); assay type: in vivo
Protocol: Mice were sacrificed at different times following compound 4 injection (6 mg/kg), and Pd content was determined for the indicated organs. Each time point represents average of three mice±STD.
Pigment 4 of the invention (6 mg/kg body) was injected to CD1 nude mice via tail vein. Mice were sacrificed at the indicated times, and samples of the indicated organs or tissues were placed and weighed in pre-weighted vials and immediately frozen on dry ice. For examination, each sample was thawed and homogenized (1:10 w/v) in double-distilled water. Aliquots of the homogenate (0.5 ml) were lyophilized in Eppendorff test tubes. Then 0.2 ml of HNO3 (70%, TraceSelect, Fluka) was added to each dry sample, incubated for 1 h at 90° C. and diluted in double-distilled water to 10 ml. Palladium concentrations were determined by ICP-MS. Background was determined for each organ/tissue on identical samples taken from untreated mice, and values were subtracted accordingly.

[5] = system: M2R melanoma xenografts; test: PDT of M2R melanoma xenografts in CD1 nude mice; assay type: in vivo; settings: for mice cure rate: 6 mg/kg i.v.
Protocol: (§4) M2R or C6 cells (2×10^6) were implanted subcutaneously on the back of the mice; tumors developed to the treatment size (6-8 mm) within 2-3 weeks.
Stock solutions of the compounds of the invention were prepared prior to use by dissolving the dry pigment directly in PBS to the desired concentration for injection.
The M2R tumor-bearing mice were anesthetized and the pigment was injected intravenously (i.v.) via the tail vein. The tumors were immediately illuminated transcutaneously for 5 min by 755 nm diode laser (CeramOptec, Germany) with light dose of either 30 J/cm2 (100 mW/cm2), 39 J/cm2 (130 mW/cm2) or 45 J/cm2 (150 mW/cm2). After the treatment, the mice were returned to the cage. […] In the light control group, the mice were illuminated with 45 J/cm^2.
In these experiments (see section (vii) above), a dedicated medical laser matched to the peak absorption of 4 (CeramOptec, Germany, 755 nm) was used. In order to determine the optimal drug/light protocol, mice were treated with drug dose of 6 mg/kg and increasing the light intensity (FIG. 7).

[6] = system: rat C6 glioma xenografts; test: Vascular shutdown and permeability (Evans Blue) after PDT of C6 glioma xenografts; assay type: in vivo, mice; settings: 9 mg/kg, 100 mW/cm^2 for 5 min; 24 hours after PDT
Protocol: FIGS. 8a-8h are photographs showing the selective effect of PDT in mice bearing rat C6 glioma xenografts and treated with compound 4. (a-d) PDT treated animal; (e-h) untreated animal. (a) before treatment; (b) 3 hours after PDT and Evans-Blue (EB) injection; (c) skin flap of the treated area, 24 hours after PDT; (d) axial slice of the treated tumor 24 hours after PDT; (e) before EB injection; (f) 3 hours after EB injection; (g) skin flap 24 hours after EB injection; (h) axial slice of the untreated tumor, 24 hours after EB injection. T-tumor; S-skin; M-muscle; E-edema.
as §4
Mice bearing C6 glioma tumor xenografts were treated with pigment 4 (9 mg/kg) and light (100 mW/cm^2 for 5 min) Immediately after treatment, Evans Blue (EB; 1% in PBS) was injected (0.5 ml, i.p.). Mice were photographed at 3 and 24 hours after treatment. The mice were sacrificed 24 hours after treatment and skin flap was made for each mouse and photographed. Then the tumor was removed with the skin above it, frozen for 1 hour at −20° C., and then axial slice was made and the slice was photographed. Control mice were injected with Evans Blue at the same time as the treated mice, and the protocol was continued as described above for all the mice together.

[7] = Aqueous solubility and stability of solution; assay type: physicochemical
Text: Compound 4 is a pure and stable bacteriochlorophyll derivative isolated as a black purple crystalline powder. […] It is characterized by the following properties: (a) 4 main absorption peaks (750, 530, 385 and 330 nm). The strongest absorbance of light is near the infrared (≈750 nm) where tissue transmittance is the highest; (b) a very low cytotoxicity in the dark. Thus, tissue damage can be controlled by the light dose and length of exposure; (c) it is rapidly cleared from the body after administration. Therefore, potential skin photosensitization damage on exposure to ambient light or to the sun light is minimal; (d) generation of reactive oxygen species (ROS) is high because of efficient intersystem crossing (ISC).

[8] = system: choroid and overlying retina (choriocapillaries)
Protocol: The WST11 powder was diluted in endotoxin-free sterile water at a concentration of 10 mg/ml, and shaken until complete dissolution. […] To calculate the volume to be injected, adjustment was made according to the rabbit weight. The appropriate volume solution was injected intravenously as a bolus via the marginal ear vein.
Pigmented rabbits (136 “Fauve de Bourgogne” rabbits, 10-12 weeks old, 2.5-3 kg; Elevage des Pins, Epeigne-sur-Dême, France) were used. Acute and long term PDT effects on the rabbit eye were investigated for the following parameters: 1) 753 nm laser fluence (25 and 50 J/cm^2), Compound 4 (also designated WST11) doses (2.5 and 5 mg/kg) and distance to light illumination (DLI) of 1,5,10 and 15 minutes. 2) 689 nm laser fluence (10, 50, 100 J/cm^2), verteporfin doses (3, 6 and 12 mg/m^2) and a constant DLI of 5 min. These PDT parameters encompassed an array of effects on the choroid and the overlying retina were delivered for 83 seconds to induce occlusive, subthreshold occlusive and non-occlusive vascular events. Treated rabbit eyes were examined and followed by indirect ophthalmoscopy, fluorescein angiography (FA) and histology at various intervals after PDT.
For the histology, enucleated eyes were dissected under a binocular microscope. A 4 mm biopsy punch was used to excise the full thickness of treated zones. These tissues were fixed in glutaraldehyde, processed in cacodylate buffer and embedded in plastic. Semi-thin sections were obtained using a microtome and counter-stained with hematoxilin-eosin. These sections were analyzed using phase contrast microscopy. Specific sites of interest were further processed for TEM. Ultrathin sections were obtained using an ultramicrotome and counter-stained with uranyl acetate.

Palladium 3^1-oxo-15-methoxycarbonylmethyl-Rhodobacteriochlorin 13^1,17^3-di(3-sulfopropyl)amide dipotassium salt [Compound 8]
dark toxicity [1]: without any dark toxicity | LD50 (phototoxicity) [1]: ~2 µM | dark toxicity [2]: without any dark toxicity | LD50 (phototoxicity) [2]: ~2 µM

Zinc 3^1-oxo-15-methoxycarbonylmethyl-Rhodobacteriochlorin 13^1-(2-sulfoethyl) amide dipotassium salt [Compound 11]
dark toxicity [2]: no dark toxicity | LD50 (phototoxicity) [2]: ~5 µM

Palladium 3^1-oxo-15-methoxycarbonylmethyl-Rhodobacteriochlorin 13^1-(2-sulfo-ethyl)amide dipotassium salt [Compound 4]
dark toxicity [1]: without any dark toxicity | LD50 (phototoxicity) [1]: ~2 µM | dark toxicity [2]: without any dark toxicity | LD50 (phototoxicity) [2]: ~2 µM | CL (clearance) ([3]; 6 mg/kg i.v., mice blood): 0.89 mL/min | Kel (rate of elimination) ([3]; 6 mg/kg i.v., mice blood): 0.42 min⁻¹ | Vd (volume of distribution) ([3]; 6 mg/kg i.v., mice blood): 2.12 mL | T0.5 ([3]; 6 mg/kg i.v., mice blood, monophasic): 1.65 min | pigment cleared from blood within the first 10-min after i.v. injection ([3]; mouse, in vivo): about 90% | time after injection to background levels in all tissues ([4]; 6 mg/kg i.v.): ≤ 30 min | time for pigment levels to drop to almost background levels in most of the examined organs ([4]; 6 mg/kg i.v.): 20 to 30 min | mice cure rate ([5]; 30 J/cm^2, 5 min illumination at 755 nm immediately after injection): 43% | mice cure rate ([5]; 45 J/cm^2, 5 min illumination at 755 nm immediately after injection): 60% | mice survival ([5]; 9 mg/kg i.v., 30 J/cm^2, 5 min illumination): 70% | dark toxicity in animals ([5]; 6 or 9 mg/kg, kept in the dark): No dark toxicity | effect on tumor blood perfusion (Evans Blue) [6]: vascular shutdown | stability of formulation ([7]; 10 mg/ml in endotoxin-free sterile water, 4° C., protected from light): 24 h | solubility ([7]; aqueous solution): soluble in aqueous solution | treated eyes with total choroidal occlusion associated with structural lesions of the overlying RPE and retina ([8]; fluence 50 J/cm^2, 5 mg/kg, DLI 1 minute, 753 nm): 100% | choriocapillaries occlusion and retinal lesions ([8]; non-occlusive parameters: 25 J/cm^2, 5 mg/kg, DLI 10 minutes): did not induce choriocapillaries occlusion nor retinal lesions | duration of occlusion of the choriocapillaries after PDT ([8]; rabbit eye): up to one week

verteporfin [reference compound]
eyes with occlusive events (observed by FA) ([8]; 12 mg/m^2, 100 J/cm^2, DLI 5 minutes, 689 nm): 89% | choriocapillaries occlusion on FA ([8]; non-occlusive parameters: 3 mg/m^2, 10 J/cm^2, DLI 5 minutes): did not induce any choriocapillaries occlusion

CC[C@H]1c2cc3[nH]c(c(CC(=O)OC)c4nc(cc5[nH]c(cc(n2)[C@@H]1C)c(C(C)=O)c5C)[C@@H](C)[C@@H]4CCC(=O)O)c(C(=O)NCCS(=O)(=O)[O-])c3C.[K+] [Compound 5, 3^1-oxo-15-methoxycarbonylmethyl-Rhodobacteriochlorin 13^1-(2-sulfoethyl)amide dipotassium salt]
dark toxicity [2]: no dark toxicity | LD50 (phototoxicity) [2]: ~5 µM

Pd-Bacteriopheophorbide a [Pd-Bpheid, reference compound]
time after injection to reach background levels ([4]; mouse body, not shown): 48 h
